# Source: ChEMBL document CHEMBL1759971, “Substituted phenyl triazoles as selective inhibitors of 11β-Hydroxysteroid Dehydrogenase Type 1” (Bioorg Med Chem Lett, 2011)
# Legend:
# [1] = tested on: Mus musculus; test: Inhibition of 11beta-HSD1 in ICR mouse assessed as conversion of [3H]cortisone to [3H]cortisol at 10 mg/kg, po after 4 hrs by scintillation counting; type: functional
# [2] = target: T1, Nuclear receptor subfamily 1 group I member 2 (Homo sapiens, UniProt O75469); test: Agonist activity at PXR; type: functional
# T1 sequence (O75469 whole entry): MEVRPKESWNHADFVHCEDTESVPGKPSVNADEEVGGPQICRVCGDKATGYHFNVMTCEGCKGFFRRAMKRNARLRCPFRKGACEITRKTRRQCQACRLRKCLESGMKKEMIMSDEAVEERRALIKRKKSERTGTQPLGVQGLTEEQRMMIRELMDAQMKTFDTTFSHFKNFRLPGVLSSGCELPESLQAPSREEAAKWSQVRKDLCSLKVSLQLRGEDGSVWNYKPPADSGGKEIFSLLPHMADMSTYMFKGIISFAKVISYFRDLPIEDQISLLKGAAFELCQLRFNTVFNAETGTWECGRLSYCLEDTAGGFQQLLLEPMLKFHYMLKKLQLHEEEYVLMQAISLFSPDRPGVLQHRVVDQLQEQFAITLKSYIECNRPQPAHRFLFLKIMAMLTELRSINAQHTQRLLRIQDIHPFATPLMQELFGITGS
# [3] = target: T1, Nuclear receptor subfamily 1 group I member 2; test: Agonist activity at PXR at 10 uM; type: functional
# [4] = target: 11-beta-hydroxysteroid dehydrogenase 1 (Homo sapiens, UniProt P28845); test: Inhibition of human 11beta-HSD1 expressed in CHO-K1 cells assessed as conversion of [3H]cortisone to [3H]cortisol by scintillation counting; type: cell-based
# [5] = target: 11-beta-hydroxysteroid dehydrogenase 1 (Mus musculus, UniProt P50172); test: Inhibition of mouse 11beta-HSD1 expressed in CHO-K1 cells assessed as conversion of [3H]cortisone to [3H]cortisol by scintillation counting; type: cell-based
# [6] = tested on: Mus musculus; test: Inhibition of 11beta-HSD1 in ICR mouse assessed as conversion of [3H]cortisone to [3H]cortisol at 10 mg/kg, po after 16 hrs by scintillation counting; type: functional
# [7] = target: T2, 11-beta-hydroxysteroid dehydrogenase type 2 (Homo sapiens, UniProt P80365); test: Inhibition of human 11beta-HSD2
# T2 sequence (P80365 whole entry): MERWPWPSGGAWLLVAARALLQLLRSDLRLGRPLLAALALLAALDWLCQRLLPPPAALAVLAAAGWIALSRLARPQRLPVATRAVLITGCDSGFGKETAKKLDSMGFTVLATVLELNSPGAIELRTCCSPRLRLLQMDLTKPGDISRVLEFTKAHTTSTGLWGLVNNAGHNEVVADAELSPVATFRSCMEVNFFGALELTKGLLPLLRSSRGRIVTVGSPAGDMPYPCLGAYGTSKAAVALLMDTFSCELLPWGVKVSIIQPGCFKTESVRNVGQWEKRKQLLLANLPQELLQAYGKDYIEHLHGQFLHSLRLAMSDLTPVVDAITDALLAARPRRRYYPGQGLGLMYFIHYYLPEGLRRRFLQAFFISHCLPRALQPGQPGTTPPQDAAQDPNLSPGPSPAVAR
# [8] = target: T3, 11-beta-hydroxysteroid dehydrogenase type 2 (Mus musculus, UniProt P51661); test: Inhibition of mouse 11beta-HSD2
# T3 sequence (P51661 whole entry): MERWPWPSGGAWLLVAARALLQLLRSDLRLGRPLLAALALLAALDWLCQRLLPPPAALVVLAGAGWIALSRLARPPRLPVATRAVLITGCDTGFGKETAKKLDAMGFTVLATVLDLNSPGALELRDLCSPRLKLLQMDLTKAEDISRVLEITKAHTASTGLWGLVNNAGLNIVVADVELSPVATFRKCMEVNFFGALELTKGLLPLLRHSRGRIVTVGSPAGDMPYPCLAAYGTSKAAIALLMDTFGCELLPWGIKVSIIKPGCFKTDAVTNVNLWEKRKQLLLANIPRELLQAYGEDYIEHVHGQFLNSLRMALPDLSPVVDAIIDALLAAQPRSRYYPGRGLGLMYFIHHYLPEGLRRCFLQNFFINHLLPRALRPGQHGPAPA
# 11-beta-hydroxysteroid dehydrogenase 1 (Homo sapiens, UniProt P28845), sequence (P28845 whole entry): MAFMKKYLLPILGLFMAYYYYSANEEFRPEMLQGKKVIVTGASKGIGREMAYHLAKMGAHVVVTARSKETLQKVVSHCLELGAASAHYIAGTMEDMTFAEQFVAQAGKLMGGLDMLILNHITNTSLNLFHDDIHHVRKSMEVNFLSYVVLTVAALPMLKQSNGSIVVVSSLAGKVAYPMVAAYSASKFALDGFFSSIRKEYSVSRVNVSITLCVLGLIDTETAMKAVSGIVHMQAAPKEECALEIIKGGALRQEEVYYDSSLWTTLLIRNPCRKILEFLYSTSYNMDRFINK
# 11-beta-hydroxysteroid dehydrogenase 1 (Mus musculus, UniProt P50172), sequence (P50172 whole entry): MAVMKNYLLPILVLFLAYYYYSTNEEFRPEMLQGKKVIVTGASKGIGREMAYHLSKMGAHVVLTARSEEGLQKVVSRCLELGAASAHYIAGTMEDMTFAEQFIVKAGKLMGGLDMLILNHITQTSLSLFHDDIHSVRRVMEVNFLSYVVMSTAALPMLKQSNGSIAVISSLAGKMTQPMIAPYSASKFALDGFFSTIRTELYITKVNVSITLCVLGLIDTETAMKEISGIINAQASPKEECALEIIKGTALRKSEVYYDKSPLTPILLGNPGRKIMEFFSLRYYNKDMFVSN
SMILES,inhibition in vivo at 10 mg/kg [1] [%],EC50 [2] [nM],Activity [3] [%],IC50 [4] [nM],IC50 [5] [nM],inhibition in vivo at 10 mg/kg [6] [%],IC50 [7] [nM],IC50 [8] [nM]
Cn1c(-c2ccc(C(=O)O)cc2)nnc1C1(c2ccc(Cl)cc2)CCC1,10,> 30000,-1,76,87,-8,> 4000,> 4000
Cn1c(-c2ccc(C(N)=O)cc2)nnc1C1(c2ccc(Cl)cc2)CCC1,35,> 30000,21,1,26,4,> 4000,> 4000
CCNC(=O)c1ccc(-c2nnc(C3(c4ccc(Cl)cc4)CCC3)n2C)cc1,71,> 30000,18,69,7.8,0,> 4000,> 4000
Cn1c(-c2ccc(C(=O)NC(C)(C)C)cc2)nnc1C1(c2ccc(Cl)cc2)CCC1,71,> 30000,11,540,3,5,> 4000,> 4000
Cn1c(-c2ccc(C(=O)NC3CC3)cc2)nnc1C1(c2ccc(Cl)cc2)CCC1,,> 30000,14,300,11,,> 4000,> 4000
Cn1c(-c2ccc(C(=O)NC3CCC3)cc2)nnc1C1(c2ccc(Cl)cc2)CCC1,,> 30000,4,470,6.6,,> 4000,> 4000
Cn1c(-c2ccc(C(=O)N3CCC3)cc2)nnc1C1(c2ccc(Cl)cc2)CCC1,,> 30000,10,250,62,,> 4000,> 4000
Cn1c(-c2ccc(C(=O)N3CCCC3)cc2)nnc1C1(c2ccc(Cl)cc2)CCC1,24,> 30000,10,650,130,0,> 4000,> 4000
Cn1c(-c2ccc(C(=O)N3CCOCC3)cc2)nnc1C1(c2ccc(Cl)cc2)CCC1,,> 30000,16,560,200,,> 4000,> 4000
Cn1c(-c2ccc(C(=O)O)cc2Cl)nnc1C1(c2ccc(Cl)cc2)CCC1,90,18000,28,11,19,38,> 4000,> 4000
Cn1c(-c2ccc(C(N)=O)cc2Cl)nnc1C1(c2ccc(Cl)cc2)CCC1,57,> 30000,16,< 1,1,12,> 4000,> 4000
Cn1c(-c2ccc(N)cc2)nnc1C1(c2ccc(Cl)cc2)CCC1,77,> 30000,22,,15,12,3100,
CC(=O)Nc1ccc(-c2nnc(C3(c4ccc(Cl)cc4)CCC3)n2C)cc1,59,> 30000,21,5.8,9.1,10,> 4000,> 4000
Cn1c(-c2ccc(NC(=O)c3cnccn3)cc2)nnc1C1(c2ccc(Cl)cc2)CCC1,67,> 30000,-2.5,69,11,5,> 4000,> 4000
Cn1c(-c2ccc(NC(=O)c3cccs3)cc2)nnc1C1(c2ccc(Cl)cc2)CCC1,63,8700,55,8.7,1,2,> 4000,> 4000
Cc1cc(C(=O)Nc2ccc(-c3nnc(C4(c5ccc(Cl)cc5)CCC4)n3C)cc2)c(C)o1,91,> 30000,18,9.5,< 1,81,> 4000,> 4000
Cn1c(-c2ccc(NC(=O)c3ccno3)cc2)nnc1C1(c2ccc(Cl)cc2)CCC1,69,> 30000,21,8,2.8,11,> 4000,> 4000
Cn1c(-c2ccc(N)cc2Cl)nnc1C1(c2ccc(Cl)cc2)CCC1,90,> 30000,35,,< 1,38,2300,
CC(=O)Nc1ccc(-c2nnc(C3(c4ccc(Cl)cc4)CCC3)n2C)c(Cl)c1,79,> 30000,34,< 1,< 1,27,> 4000,> 4000
Cn1c(-c2ccc(NC(=O)c3cnccn3)cc2Cl)nnc1C1(c2ccc(Cl)cc2)CCC1,82,> 30000,33,2.6,1.9,46,> 4000,> 4000
Cn1c(-c2ccc(-c3cnc(O)nc3)cc2)nnc1C1(c2ccc(Cl)cc2)CCC1,,> 30000,9,1.2,2.9,,> 4000,> 4000
Cn1c(-c2ccc(-c3ccc(N)nn3)cc2)nnc1C1(c2ccc(Cl)cc2)CCC1,,> 30000,12,4.8,1.1,,> 4000,> 4000
Cn1c(-c2ccc(-c3cnoc3)cc2)nnc1C1(c2ccc(Cl)cc2)CCC1,,23000,29,1.1,4.1,,> 4000,> 4000
Cn1c(-c2ccc(-c3ccsc3)cc2)nnc1C1(c2ccc(Cl)cc2)CCC1,81,3000,78,,< 1,33,1300,
Cn1c(-c2ccc(-c3cnccn3)cc2C(N)=O)nnc1C1(c2ccc(Cl)cc2)CCC1,,> 30000,4,120,68,,> 4000,> 4000
Clc1ccc(C2(c3nnc4n3CCCCCC4)CCC2)cc1,,1600,100,,,,,
Cn1c(-c2ccc(-c3cccnc3)cc2Cl)nnc1C1(c2ccc(Cl)cc2)CCC1,,,35,,,,> 4000,
Cn1c(-c2ccc(-c3ccccc3)cc2)nnc1C1(c2ccc(Cl)cc2)CCC1,,1700,90,,,,,
